Test results as given in patent publication US20170027897A1, “mTORC1 MODULATION BY AMINO ACIDS AND USES THEREOF” (WHITEHEAD INSTITUTE FOR BIOMEDICAL RESEARCH, priority 2013, published 2017).

Tests used:
[1] = tested on: mTORC1; assay: Amino acid starvation and re-stimulation of HEK-293T cells, phospho-S6K western blot; assay type: cell-based, human; conditions: whole-cell assays of mTORC1 activity; partly called preliminary evidence
Description: The work described herein determined which amino acids are most critical for signaling to the mTORC1 pathway in HEK-293T cells, the workhorse cell culture system to which we owe much of our understanding about amino acid sensing. The basic experimental paradigm consists of a 50-minute total amino acid starvation followed by a 10-minute stimulation with a customizable set of amino acids. […] The work described herein determined that that there may be one or more missing amino acids that, when added alongside Leu and Arg, could fully activate mTORC1.
To determine the identities of these missing amino acids, the inventors first stimulated cells with the set of essential or the set of nonessential amino acids. […] The inventors then tested triplet amino acid combinations comprised of Leu, Arg, and one additional essential amino acid. […] Cocktails of EAAs that omitted one amino acid at a time were prepared. […] Thus the necessity and sufficiency experiments yielded complementary results, converging on Leu, Arg, and Lys as key signals for mTORC1 activation in 293T cells.
The inventors have explored why this particular combination of amino acids has such synergistic effects on the mTORC1 pathway in 293T cells. Given that both Arg and Lys contain basic side chains, the inventors first wondered if this shared chemical property underlay their abilities to activate mTORC1.
Furthermore, the inventors continue to characterize structure-activity relationships using LRK derivatives with modifications on the carboxy terminus, the amino terminus, and/or the side chain in whole-cell and in vitro lysosomal assays of mTORC1 activity. The inventors first tested amino acid carboxyesters, whose enhanced ability to permeate membranes render them good candidates for lysosomal loading. Once inside the lysosome, amino acid esters are thought to undergo hydrolysis to yield their native counterparts. […] Knowledge of the chemical space around LRK can be used to develop probes for interrogating the LRK/protein(s) interaction interface for isolating and/or enriching the amino acid sensor(s) feeding into mTORC1.

[2] = tested on: RagA^GTP/GTP neonates; assay: Survival, glucose homeostasis and autophagy of fasted RagA^GTP/GTP neonates; assay type: in vivo, mouse
Procedure: NS, not significant. […] FIG. 10G is a series of bar graphs illustrating the quantification of neonatal plasma amounts of branched-chain (BCAA) and essential amino acids at birth (left), after 10 h fasting (middle) and after 10 h fasting with rapamycin treatment (right) (n for +/+, G/+ and G/G, respectively: n=4, 5 and 4 for 0 h; n=4, 4 and 3 for 10 h; n=2, 5 and 3 for rapamycin; mean±s.d.). Values are expressed relative to RagA^+/+ amounts at each time point.

[3] = tested on: mTORC1; assay: mTORC1 activity in MEFs (immunoblotting); assay type: cell-based, mouse; conditions: AMPK activator treatment
Procedure: FIG. 16A is a bar graph illustrating the decrease in plasma amino acids in all 1 h fasted neonates. […] FIG. 16C is a western blot depicting the time course of mTORC1 and AMPK activity in AMPK-wt, AMPK-DKO, RagA^+/+ and RagA^GTP/GTP MEFs deprived of glucose for 0.5, 2 and 4 h. FIG. 16D is a western blot of whole cell lysates immunoblotted for the indicated proteins, showing control HEK-293T cells or those expressing RagB^GTP were deprived of growth factors, glucose, amino acids, or glucose and amino acids for 1 h and re-stimulated with glucose and/or amino acids for 10 min. FIG. 16E is a graph illustrating the quantification of the western blots on FIG. 12B and FIG. 16D. FIG. 16F is a western blot showing the effect of amino acid esters on mTORC1 activity in wt MEFs. FIG. 16G is a bar graph showing the quantification of amino acids in RagA^+/+ and RagA^GTP/GTP MEFs deprived of glucose (relative to un-starved controls). […]
Maintenance of mTORC1 activity requires the simultaneous presence of growth factors, amino acids, and glucose^1. […] In addition, AMPK activity, as monitored by acetyl-CoA carboxylase (ACC) phosphorylation, was induced to similar levels in glucose-deprived RagA^+/+ and RagA^GTP/GTP cells (FIG. 12B and FIG. 16C), but absent in AMPK-null cells (FIG. 12A).

[4] = tested on: mTORC1; assay: Assaying L, R, K analogs for mTORC1 modulation in whole cells (pS6K); assay type: cell-based, human
Procedure: Generally, to test analogs of L, R, and K, whole cells (e.g., HEK293) can be starved of all amino acids (using RPMI—aa) for a period of time (e.g., about 50 min), and then stimulated with a combination of L, R, or K and/or an analog of L, R, or K, and mTORC1 activity can be measured by phosphorylation of an mTORC1 substrate (e.g., S6K).
Below are exemplary conditions which can be used to assay analogs of leucine (e.g., photoleucine (photoLeu)) for their ability to activate or suppress mTORC1 activity.
4) RK+0.1× photoLeu 5) RK+0.5× photoLeu 6) RK+1× photoLeu 7) RK+10× photoLeu
9) LRK+0.1× photoLeu 10) LRK+0.5× photoLeu 11) LRK+1× photoLeu 12) LRK+10× photoLeu
Conditions 3-7 above test whether or not a leucine analog (e.g., photoLeu) can substitute for native Leu. […] Those skilled in the art will appreciate that conditions 3-7 above can be modified to assay other analogs, for example, by replacing RK with LK to assay R analogs or by replacing RK with LR to assay K analogs.
Conditions 8-12 above test whether or not a leucine analog (e.g., photoLeu) can compete against native Leu.
The concentration range of analogs used in the protocol set forth above was from about 0.1× to 10× (relative to RPMI), however, other concentrations may be used, as will be appreciated by the skilled artisan.

[5] = tested on: mTORC1; assay: Muscle mTORC1 activation in immobilized and fasted mice after IP injection (phosphorylated S6, 4EBP1); assay type: in vivo, mouse; conditions: 18-hour fast, 30 minutes
Procedure: Mice were subjected to a model of hindlimb immobilization for 5 days in which the left hindlimb was casted as described in Example 2 in order to induce atrophy. Food and water were provided ad libitum. The night before day 6, food was withdrawn and the mice were subjected to an 18-hour overnight fast. […] Right (R; control) and left (L*; immobilized) gastrocnemius muscles were collected 30 minutes after treatment, snap frozen in liquid nitrogen, and processed for western blotting analysis with appropriate antibodies as previously described.

[6] = tested on: muscle protein synthesis; assay: Muscle protein synthetic rate in starved rats (flooding dose of radiolabeled phenylalanine); assay type: in vivo, rat; conditions: oral, 25% dose, 45 minutes, versus fasted vehicle control
Procedure: FIGS. 24A and 24B depict the effect of various amino acid combinations or a Leu-Arg-Lys tripeptide on phosphorylation of an mTORC1 substrate and the rate of muscle protein synthesis in starved rats.
To address this question, starved rats (n=8) were given oral doses of leucine, LR, LR(k), LC(k) and the LRK peptide and muscle protein synthetic rates were measured by administering a flooding dose of radiolabeled phenylalanine 10 minutes before sacrifice and quantifying uptake of radiolabeled phenylalanine.
Starved rats were dosed with amino acids benchmarked to either 5% of 25% of their daily intake of leucine. Rats were sacrificed 45 minutes after oral gavage and tissues and plasma was collected for mTORC1 signaling assessment, quantification of plasma leucine levels and measurement of protein synthetic rates.

[7] = cited from earlier work
[8] = tested on: mice, hindlimb immobilization model of muscle atrophy; assay: Hindlimb immobilization/recovery model of muscle atrophy, gastrocnemius mass; assay type: in vivo, mouse; conditions: left hindlimb immobilized 5 days, 5 days recovery; IP twice daily; rapamycin daily where indicated
Procedure: Mice were subjected to immobilization of the left hind limb for 5 days followed by a 5-day recovery period. Each mouse was injected intraperitoneally twice daily at 9 am and 6 pm during the whole immobilization/recovery periods with the indicated amino acid esters or vehicle control. Rapamycin or vehicle control was injected daily where indicated. Following completion of the study both the right and left gastrocnemius were removed and mass of each muscle was recorded. Percent recovery was calculated by comparing the mass of the left immobilized gastrocnemius to that of the contralateral control leg. Standard error is shown, n=5-6 per treatment.
The protocol of hindlimb immobilization involves casting of the rear left leg, resulting in atrophy of the gastrocnemius and soleus muscles. The rear right leg remains free, and serves as an internal control for gastrocnemius and soleus muscle mass.
The inventors performed an experiment where left hindlimbs were immobilized for 5 days, casts were removed, and a recovery period of 5 days continued until the study endpoint. Animals were injected with PBS as control, L ethyl ester, or LR ethyl esters twice daily. As in the previous experiment, the 1× doses of amino acids and their esters were calculated as 20% of the amount that an adult mouse eats in a 24 h period under ad libitum conditions. […]

[9] = Free amino acid levels in gastrocnemius muscle by LC-MS in fasted mice; assay type: in vivo, mouse; conditions: upon IP injection of citrulline containing formulations
[10] = tested on: mTORC1; assay: Phosphorylated S6 in gastrocnemius muscle and liver of fasted rats after oral gavage or bolus IV injection; assay type: in vivo; conditions: summary of the rat studies
Procedure: FIGS. 23A, 23B, 23C and 23D depict the effect of administering various combinations of amino acids on levels of phosphorylated ribosomal protein S6 (pS6) in gastrocnemius muscle and liver. FIGS. 23A and 23B are bar graphs showing the fold increase in pS6/actin protein ratios in fasted rat gastrocnemius muscle (FIG. 23A) or liver (FIG. 23B) 30 and 60 minutes after administering amino acids via oral gavage. FIGS. 23C and 23D are bar graphs showing the fold increase in pS6/actin protein ratios in fasted rat gastrocnemius muscle (FIG. 23C) or liver (FIG. 23D) 30 and 60 minutes after administering amino acids via intravenous bolus injection.
Rats (n=3), fasted for 24 hours, were administered LRK or LCK via oral gavage or bolus IV injection and gastrocnemius muscle and liver was isolated 30 and 60 minutes later. Gastrocnemius muscle and liver was analyzed by SDS-PAGE followed by western blotting for levels of phosphorylated S6—a marker of mTORC1 activity.

## COC(=O)[C@@H](N)CCCCN [lysine methyl ester]
[1]
  mTORC1 stimulatory activity of derivative compared with the corresponding native amino acid: modestly more stimulatory than the corresponding native amino acid

## CO[C@H]1C[C@@H]2CC[C@@H](C)[C@@](O)(O2)C(=O)C(=O)N2CCCC[C@H]2C(=O)O[C@H]([C@H](C)C[C@@H]2CC[C@@H](O)[C@H](OC)C2)CC(=O)[C@H](C)/C=C(\C)[C@@H](O)[C@@H](OC)C(=O)[C@H](C)C[C@H](C)/C=C/C=C/C=C/1C [rapamycin]
[2]; treated at birth, untreated ˜14 h, p<0.01
  time to death of fasted RagA^GTP/GTP neonates: ~21 h

## C[C@H](N)C(=O)O [alanine]
[2]; all neonates regardless of genotype
  glycaemia of fasted neonates after injection: provoked a significant increase in glycaemia

## NC(=O)c1ncn([C@@H]2O[C@H](CO)[C@@H](O)[C@H]2O)c1N [AICAR, aminoimidazole carboxamide ribonucleotide]
[3]
  mTORC1 activity in RagA^+/+ and RagA^GTP/GTP MEFs: inhibited mTORC1 in cells of all genotypes

## CC1(C[C@H](N)C(=O)O)N=N1 [photoLeu]
[4]; LRK + 0.1× to 10× analog (relative to RPMI)
  suppression of pS6K signal caused by baseline LRK (antagonist test): not an antagonist or mTORC1-inactivating competitor against native Leu
[4]; RK + 0.1× to 10× analog (relative to RPMI)
  pS6K signal when analog substitutes for native Leu (agonist test): pS6K signal increases
[1]
  mTORC1 stimulatory activity of derivative compared with the corresponding native amino acid: retains some mTORC1 stimulatory activity

## CC(C)C[C@H](NC(=O)OCc1ccccc1)C(=O)O
[1]
  mTORC1 stimulatory activity of derivative compared with the corresponding native amino acid: retains the ability to signal to mTORC1, albeit with lower potency than native Leu

## CCOC(=O)[C@@H](N)CCCCN [lysine ethyl ester]
[1]
  mTORC1 stimulatory activity of derivative compared with the corresponding native amino acid: modestly more stimulatory than the corresponding native amino acid

## CC(C)C[C@H](N)C(=O)O [leucine, L-leucine]
[5]
  mTORC1 activity (phosphorylated S6 and 4EBP1) in non-immobilized (R) gastrocnemius: stimulated mTORC1 in the non-immobilized muscle in all mice
[5]; 5 days immobilization, LRK = 1× (L-Leucine, L-Arginine) plus 0.1× L-Lysine
  mTORC1 activity (phosphorylated S6 and 4EBP1) in immobilized (L*) gastrocnemius compared to fasted controls: unable to increase mTORC1 activity in the immobilized (L*) gastrocnemius muscle in four of the 5 mice
[6]
  muscle protein synthesis (MPS) rate in gastrocnemius: little difference between fasted rats and rats given leucine alone

## NCCCC[C@H](N)C(=O)O [lysine, L-lysine]
[7]; Fry C S et al. 2011
  bioavailability of orally ingested amino acid: superior to leucine and arginine

## CCOC(=O)[C@@H](N)CC(C)C [leucine ethyl ester, L-leucine ethyl ester]
[8]
  relative gastrocnemius muscle mass compared to control (PBS injected mice): the only treatment that led to a significant increase in gastrocnemius muscle mass was LR ethyl ester treatment
[1]
  mTORC1 stimulatory activity of derivative compared with the corresponding native amino acid: modestly more stimulatory than the corresponding native amino acid

## COC(=O)[C@@H](N)CC(C)C [leucine methyl ester]
[1]
  mTORC1 stimulatory activity of derivative compared with the corresponding native amino acid: modestly more stimulatory than the corresponding native amino acid

## NC(=O)NCCC[C@H](N)C(=O)O [citrulline, L-Citrulline]
[9]
  conversion of citrulline to arginine: little to no conversion of citrulline to arginine
[7]; Bahri S. et al. 2013
  circulating citrulline converted to arginine by the kidneys: over 80%
[10]
  mTORC1 activation at the level of muscle, as substitute for arginine: adequate substitute for arginine for mTORC1 activation at the level of muscle
  mTORC1 activation in liver, as substitute for arginine: less potent at activating mTORC1 in liver
